Reference: patent publication US6706509B2, “Oncoprotein protein kinase” (The Regents of the University of California, priority 1993, dated 2004)

Key:
[1] = system: c-jun; assay: c-Jun phosphorylation in 32P-labelled Jurkat cells (SDS-PAGE, tryptic phosphopeptide mapping); assay type: cell-based, human
Experimental: Jurkat cells were grown in RPMI with 10% fetal calf serum (FCS), 1 mM […], 100 μ/ml penicillin (pen), 100 μg/ml streptomycin (strep) and 250 ng/ml amphotericin (complete medium). HeLa S3, CV-1 and FR3T3 cells were grown in DMEM supplemented with 10% FCS, 100 μ/ml pen, 100 μg/ml strep. All cells were cultured at 37° C. with 5% CO2. Mouse thymocytes were prepared from 8 week old Balb/C mice by gradient centrifugation on lymphocyte separation medium (Pharmacia). The lymphocytes were cultured for 5 hours at 37° C. in RPMI+10% FCS, prior to stimulation. Jurkat cells were labelled for 90 minutes with 0.5 mCi/ml ^32P-orthophosphate (ICN Radiochemicals) in medium lacking sodium phosphate. Labelled cells were treated with TPA (Sigma) and A23187 (Calbiochem) 1 μg/ml as indicated. When used, cyclosporin A (CsA) (Sandoz) 100 ng/ml in ethanol was added 10 minutes prior to cell stimulation. Following stimulation, the labelled cells were washed twice with ice-cold PBS then lysed with RIPA buffer (10 mM Tris pH 7.5, 150 mM NaCl, 2 mM EDTA, 1% Triton-X 100, 1% DOC, 0.1% SDS) supplemented with phosphatase inhibitors (20 mM β-glycerophosphate, 10 mM p-nitro-phenylphosphate, 1 mM Na3 VO4), and protease inhibitors (10 μg/ml leupeptin, aprotonin, pepstatin and 1 mM phenylmethyl sulfonylfluoride). c-Jun was immunoprecipitated as described (Binetruy, et al., supra., 1992) and analyzed by SDS-PAGE, followed by peptide mapping (Boyle, et al., Cell, 64:573-584, 1991; Lin, et al. Cell, 70:777-789, 1992). Ha-Ras was immunoprecipitated with Y13-259. Ha-Ras bound nucleotides were extracted and analyzed as described by Satoh, et al., (Proc. Natl. Acad. Sci., USA, 15:5993-5997, 1990).
Induction of c-Jun transcription and optimal stimulation of AP-1 correlate with changes in c-jun phosphorylation (Devary, et al., Cell, 71:1081-1091, 1992). The effect of TPA and A23187 on c-Jun phosphorylation in Jurkat cells was examined. To elevate c-Jun expression, Jurkat cells were transfected with a c-Jun expression vector. The cells were labelled with ^32P and c-Jun was immunoprecipitated from cells subjected to various stimuli and analyzed by SDS-PAGE (FIG. 12A). Jurkat cells (10^6 cells per lane) were transfected with 0.5 μg of a SRα-cJun expression vector and 24 hours later were labeled for 3 hours with ^32P-orthophosphate (1 mCi/ml). After 15 minutes, treatment with 50 ng/ml TPA (T), 1 μg/ml A23187 (A) and 100 ng/ml CsA, either alone or in combination, as indicated, the cells were lysed in RIPA buffer and c-Jun was isolated by immunoprecipitation and analyzed by SDS-PAGE. The c-Jun bands are indicated.
c-Jun phosphorylation was further analyzed by two-dimensional phosphopeptide mapping (FIG. 12C). This analysis included all the isoforms of c-Jun. All of the c-Jun specific protein bands shown in FIG. 12A, isolated from equal numbers of cells, were excised from the gel and subjected to tryptic phosphopeptide mapping. Shown is a typical result (this experiment was repeated at least three times). N-nonstimulated cells; T-cells treated with 50 ng/ml TPA; T/A: cells treated with 50 ng/ml TPA and 1 μg/ml A23187; T/A+CsA: cells treated with T/A and 100 ng/ml CsA. a,b,c,x and y correspond to the various tryptic phosphopeptides of c-Jun, previously described by Boyle, et al., (Cell, 64:573-584, 1991) and Smeal, et al., (Nature, 354:494-496, 1991). T1 and T2 correspond to the minor phosphorylation sites; Thr91, 93 and 95 (Hibi, et al., Genes & Dev., 7:000, 1993).

[2] = system: ERK2; assay: ERK2 MBP-kinase activity after anti-ERK2 immunoprecipitation, Jurkat cells; assay type: cell-based, human
Experimental: WCE (50 μg) of Jurkat cells treated as described above were incubated with GSTcJun(1-223)-GSH agarose beads and assayed for JNK activity using the solid-state kinase assay. The same WCE (20 μg) were immunoprecipitated with anti-ERK2 antibodies and assayed for MBP-kinase activity.
WCE (50 μg) of Jurkat cells treated as described in Panel A with various stimuli alone or their combinations were incubated with GSTcJun(1-223)-GSH agarose beads and assayed for JNK activity using solid-state kinase assay. The same samples (20 μg) were also assayed for MBP-kinase activity as described in FIG. 16B.

For CNc1ccc2oc(C[C@H]3O[C@@]4(CC[C@H]3C)O[C@H]([C@H](C)C(=O)c3ccc[nH]3)[C@H](C)C[C@H]4C)nc2c1C(=O)O [A23187], the “N-terminal c-Jun phosphorylation, costimulation with TPA” value ([1]; A23187 1 μg/ml plus TPA 50 ng/ml) was “strongly enhanced” and the “phosphorylated c-Jun migration, costimulation with TPA” value ([1]; A23187 1 μg/ml plus TPA, 15 minutes) was “enhanced this effect”.

For CCCCCCCCCCCCCC(=O)O[C@@H]1[C@@H](C)[C@@]2(O)[C@@H](C=C(CO)C[C@]3(O)C(=O)C(C)=C[C@@H]23)[C@H]2C(C)(C)[C@]12OC(C)=O [TPA], the “phosphorylated c-Jun migration on SDS-PAGE, agent alone” value ([1]; Jurkat transfected with c-Jun vector, TPA 50 ng/ml, 15 minutes) was “induced the appearance of slower migrating bands”, the “phosphorylation of N-terminal sites Ser63 and Ser73 of c-Jun (phosphopeptide map), agent alone” value ([1]; Jurkat, TPA 50 ng/ml) was “increased phosphorylation of the N-terminal sites” and the “ERK2 activation, suboptimal dose of TPA by itself” value [2] was “partial activation of ERK2”.

For cyclosporin A [CsA], the “N-terminal c-Jun phosphorylation, CsA added to TPA+A23187” value ([1]; CsA 100 ng/ml) was “prevented the enhancement of N-terminal phosphorylation”, the “phosphorylated c-Jun migration, CsA added to TPA+A23187” value ([1]; CsA 100 ng/ml, 15 minutes) was “reduced the Ca^++ effect” and the “ERK2 activation by anti-CD3, effect of CsA” value ([2]; CsA 100 ng/ml) was “nor was it inhibited”.
